Drawing on ChEMBL document CHEMBL1131744, “Amino-substituted thalidomide analogs: potent inhibitors of TNF-alpha production” (Bioorg Med Chem Lett, 1999), this text covers IC50 and inhibition for nine compounds.

Molecules are shown by their SMILES. Bounds are passed on as bounds.

One test is filed under the species Homo sapiens. Briefly: Inhibition of lipopolysaccharide stimulated TNF-alpha release in human whole blood. The class given is functional.
The target in test [1] is T1, Phosphodiesterase 4 (Homo sapiens) (UniProt P27815+Q08499+Q07343+Q08493). Briefly: Inhibition of Phosphodiesterase 4 from U937 cells at 100 uM. To be noted: U-937. Format: cell-based.
Test [2] deals with PBMC. Briefly: Inhibition of lipopolysaccharide stimulated TNF-alpha release in human PBMC. The class given is functional, cell-based.
Test [3] concerns PBMC. Briefly: Inhibition of lipopolysaccharide stimulated TNF-alpha release in human PBMC at 100 uM. The class given is functional.
Test [4] has as its target T1, Phosphodiesterase 4 (Homo sapiens). The test is described as follows: Inhibition of PDE4 from U937 cells at 100 uM. Format: cell-based. To be noted: U-937.

Take `Nc1cccc2c1C(=O)N(C1CCC(=O)NC1=O)C2=O` (stereo unspecified) [POMALIDOMIDE]: the IC50 (in general, the point on the concentration scale where inhibition reaches its midpoint) in the test filed under Homo sapiens was 25 nM; with PBMC [2], 13 nM. The inhibition (commonly the change of the read-out against control, counted positive when it falls) in test [1] is below 50%. This compound displayed an inhibition at 100 µM with PBMC [3] of 95%.
Turning to `Nc1cccc2c1CN(C1CCC(=O)NC1=O)C2=O` (stereo unspecified) [LENALIDOMIDE], half-maximal inhibition in the test listed under Homo sapiens (IC50) was put at 480 nM. The compound also had an inhibition in test [1] below 50%. Moreover, in the test with PBMC [3], at 100 µM the inhibition was 74%.
For the compound `Nc1cccc2c1C(=O)N([C@H]1CCC(=O)NC1=O)C2=O`, the half-inhibitory concentration (IC50) in the test listed under Homo sapiens was determined as 14 nM; in the test with PBMC [2] it was 3.9 nM. Further, in the test with PBMC [3], the inhibition at 100 µM came out at 99%.
Take `Nc1ccc2c(c1)CN(C1CCC(=O)NC1=O)C2=O` (stereo unspecified): the inhibition at 100 µM with PBMC [3] came out at 15%.
Still for that read-out and setting: the same measure for `Nc1ccc2c(c1)C(=O)N(C1CCC(=O)NC1=O)C2` (stereo unspecified): 12%.
Regarding `Nc1cccc2c1C(=O)N([C@@H]1CCC(=O)NC1=O)C2=O`, the IC50 was 73 nM in the test listed under Homo sapiens and 93 nM with PBMC [2]. In the test on PBMC [3], this compound gave an inhibition at 100 µM of 85%.
In the case of `Nc1cccc2c1C(=O)N(C1CCC(=O)NC1=O)C2` (stereo unspecified), in the test with PBMC [3], the inhibition at 100 µM came to 18%.
The same measure, in the same setting: the same measure for `Nc1ccc2c(c1)C(=O)N(C1CCC(=O)NC1=O)C2=O` (stereo unspecified): 55%.
On to `CC1(N2C(=O)c3cccc(N)c3C2=O)CCC(=O)NC1=O` (stereo unspecified), for which the IC50 in the test filed under Homo sapiens was found to be 216 nM; in the test with PBMC [2] it was 44 nM. Besides, the inhibition at 100 µM in the test on PBMC [3] was found to be 98%. In test [4], this compound had an inhibition below 50%.
